Experimental findings from US11000543B2, “Substances containing AuCs and preparation method and use thereof” (Shenzhen Profound-View Pharma Tech Co., Ltd, priority 2017, dated 2021) are described below.

Each structure is given as a SMILES string.

The target in one test is T1, α-syn (Homo sapiens, UniProt P37840).
T1 construct: purchased Bachem Corp
The test is described as follows: In vitro α-syn aggregation kinetics, ThT fluorescent labeling method. Format: biochemical. Particulars: L-NIBC 1.0 and 10.0 ppm; 35 μM α-syn, 37° C. The text has this: Thioflavin T (abbreviation: ThT) is a dye for dyeing amyloid fibers specifically. […] When it encounters amyloid polypeptide or protein with a fiber structure, it will immediately couple with the amyloid polypeptides or proteins and its fluorescence intensity will increase exponentially. For this reason, ThT is widely used as markers to monitor amyloidosis of peptides or proteins. This embodiment utilizes ThT fluorescent labeling method to monitor the kinetics process of fibrosis aggregation of α-syn with the existence of AuCs. The specific experiment method was as follows:
Pretreatment of α-syn monomers: Freeze-dried powder (Bachem Corp.) of α-syn was dissolved in HFIP to obtain a 1 g/L α-syn solution. The solution was incubated at room temperature for 2-4 h after sealing, then blowed to dry HFIP by high-purity nitrogen in a fume hood. […]
Sample preparation and detection: Ligand-modified AuCs in different concentrations listed in Table 1 were added to 35 μM α-syn PBS solutions respectively, and incubated continuously in a 96-well plate at 37° C., by ThT fluorescent labeling method, and were monitored the fluorescence intensity by microplate reader once every 10 minutes. The kinetic process of α-syn aggregation was characterized through the change of fluorescence intensity of ThT. […]

The target of test [1] is T2, Aβ(1-40) (Homo sapiens, UniProt P05067).
T2 construct: Freeze-dried powder of amyloid polypeptide Aβ(1-40) (Invitrogen Corp.); purchased Invitrogen Corp
The test can be described thus: AFM topography of Aβ(1-40) after 48 h coincubation. Format: biochemical. The conditions noted are these: coincubated for 48 h. Here is the method:
Panel A is the AFM topography after Aβ(1-40) was incubated alone for 48 h. Panel B is an AFM topography after Aβ(1-40) was coincubated with L-NIBC for 48 h. Panel C and panel D are AFM topographies after Aβ(1-40) was coincubated with gold nanoparticles with an average particle size of 6.0 nm and 3.6 nm respectively (modified with L-NIBC) for 48 h. And […] is an AFM topography after Aβ(1-40) was coincubated with AuCs in an average particle size of 1.8 nm (modified with L-NIBC) for 48 h.

Test [2] concerns the target T2, Aβ(1-40). The test is described as follows: In vitro Aβ(1-40) aggregation kinetics, ThT fluorescent labeling method. Format: biochemical. The conditions noted are these: L-NIBC 1.0 and 10.0 ppm; 20 μM Aβ(1-40), 37° C. From the text:
Thioflavin T (abbreviation: ThT) is a dye specifically for dyeing amyloid fibers. […] When it encounters amyloid polypeptides or proteins with a fiber structure, it will immediately couple with the amyloid polypeptides or proteins and its fluorescence intensity will increase exponentially. Just because of this property, ThT is widely used as a marker to monitor amyloidosis of peptides or proteins. The fibrosis process of Aβ(1-40) is also a nucleation-controlled polymerization process. Therefore, the growth curve of Aβ(1-40) fiber measured by ThT fluorescent labeling method is mainly divided into three stages: Initial stage, growth stage and platform stage. […] All the Aβ(1-40) PBS solutions for the experiments were prepared freshly. […] The samples were incubated continuously in a 96-well plate at 37° C. by ThT fluorescent labeling method, and monitored the fluorescence intensity by microplate reader once every 10 minutes.

Test [3] deals with SH-SY5Y neuroblastoma cell line. The test can be described thus: Aβ induced AD cell model, cell viability by CCK-8. Format: cell-based. Particulars: 20 μM Aβ(1-40), 24 h; L-NIBC 20 ppm; particles 0.01-20 ppm.
Experimental: The cell viability was used as an index in the experiment of this embodiment. […] The cells used in the experiment were SH-SY5Y neuroblastoma cell line. […] Specific method:
1) SH-sy5y cells (cells had passed to the sixth generation) in logarithmic growth phase were diluted with complete medium (MEM+10% FBS+1% penicillin−streptomycin) to get a cell suspension in a density of 5×10^4/mL. The suspension was inoculated 200 μL per well into a 96-well plate, and cultivated in an incubator with 5% CO2 at 37° C. A sample was added when the cells attached to the wells.
2) 100 μL ligand-modified AuCs samples or ligand-modified gold nanoparticles samples, at different particle sizes and at concentrations of 0.04 ppm, 0.4 ppm, 4 ppm, 20 ppm, 40 ppm and 80 ppm respectively, which were dissolved by maintenance medium (MEM+2% FBS+1% penicillin-streptomycin) were added into the incubated suspension obtained from Step 1). After incubating in the incubator for 2 h, 100 μL 80 μM Aβ(1-40) was added, and then the mixture was incubated in the incubator for 24 h. […] The culture medium was removed, maintenance medium (MEM) containing 10% CCK-8 at 100 μL/well was added and was incubated for 4 h, the absorbance of each well at 450 nm was measured to reflect the prevention and treatment effects of ligand-modified AuCs on Aβ(1-40) lesion.

T2 sequence (P05067 672-711 limits assumed): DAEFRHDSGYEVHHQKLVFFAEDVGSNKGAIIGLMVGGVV

Take `CC(C)C(=O)N[C@@H](CS)C(=O)O` [L-NIBC, N-isobutyryl-L-cysteine]: the “effect on kinetics of α-syn aggregation” value at α-syn was “did not have an obvious effect”. The “Aβ(1-40) fibers in AFM topography” value at Aβ(1-40) [1] is recorded as “no obvious effect”. Also, on Aβ(1-40) [2], the “effect on Aβ(1-40) amyloidosis kinetics” value is recorded as “no obvious effect”. For the same compound, in test [3], the “effect on cell viability in Aβ-induced AD cell model” value is given as “did not improve cell viability”.
